Reference: ChEMBL document CHEMBL1146860, “Bicyclo[3.1.0]hexyl urea melanin concentrating hormone (MCH) receptor-1 antagonists: impacting hERG liability via aryl modifications” (Bioorg Med Chem Lett, 2006)

Tests used:
hERG = hERG (Homo sapiens, UniProt Q12809); experiment: Inhibition of hERG channel by rubidium efflux assay at 5 ug/ml; type: toxicity
[1] = molecular target: Melanin-concentrating hormone receptor 1 (Homo sapiens, UniProt Q99705); experiment: Binding affinity to MCHR1
[2] = AUC (0-6h) in rat at 10 mg/kg, po; type: ADME, organism-based; parameters: time < 6 hr, dose 10 mg/kg, route oral; conditions: plasma
[3] = molecular target: Voltage-gated inwardly rectifying potassium channel KCNH2 (Homo sapiens, UniProt Q12809); experiment: Inhibition of hERG channel by voltage clamp assay; type: toxicity
Chain of Voltage-gated inwardly rectifying potassium channel KCNH2 (Q12809 whole entry): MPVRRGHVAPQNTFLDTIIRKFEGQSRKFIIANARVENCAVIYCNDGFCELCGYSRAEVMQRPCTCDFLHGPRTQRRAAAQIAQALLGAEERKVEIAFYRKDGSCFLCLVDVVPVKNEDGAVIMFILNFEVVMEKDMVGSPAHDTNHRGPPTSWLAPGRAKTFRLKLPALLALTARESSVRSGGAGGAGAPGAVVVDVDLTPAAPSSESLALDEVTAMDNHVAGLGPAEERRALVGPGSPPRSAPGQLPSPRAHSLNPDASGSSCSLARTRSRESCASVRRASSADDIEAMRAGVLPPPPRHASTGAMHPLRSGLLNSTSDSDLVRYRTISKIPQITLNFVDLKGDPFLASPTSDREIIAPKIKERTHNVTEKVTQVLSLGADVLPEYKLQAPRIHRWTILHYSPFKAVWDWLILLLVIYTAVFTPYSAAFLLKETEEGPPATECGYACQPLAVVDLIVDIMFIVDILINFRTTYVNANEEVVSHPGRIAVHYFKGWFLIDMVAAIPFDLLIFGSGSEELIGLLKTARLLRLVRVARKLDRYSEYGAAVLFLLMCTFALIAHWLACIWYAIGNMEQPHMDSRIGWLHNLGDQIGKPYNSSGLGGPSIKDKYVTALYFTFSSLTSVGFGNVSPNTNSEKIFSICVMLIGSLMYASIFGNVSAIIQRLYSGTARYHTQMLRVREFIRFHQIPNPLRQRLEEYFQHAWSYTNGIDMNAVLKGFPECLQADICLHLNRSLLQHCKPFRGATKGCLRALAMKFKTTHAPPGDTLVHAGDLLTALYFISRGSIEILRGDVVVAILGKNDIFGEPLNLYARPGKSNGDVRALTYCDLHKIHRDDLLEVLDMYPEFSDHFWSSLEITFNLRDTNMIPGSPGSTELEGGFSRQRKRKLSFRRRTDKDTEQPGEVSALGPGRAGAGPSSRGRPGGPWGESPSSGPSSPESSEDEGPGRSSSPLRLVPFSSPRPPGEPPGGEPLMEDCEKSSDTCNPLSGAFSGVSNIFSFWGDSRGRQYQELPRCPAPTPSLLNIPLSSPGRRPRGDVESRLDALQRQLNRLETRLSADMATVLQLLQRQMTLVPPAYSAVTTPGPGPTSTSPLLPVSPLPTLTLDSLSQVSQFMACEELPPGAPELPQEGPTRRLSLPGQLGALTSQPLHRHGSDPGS

Chain of hERG (Q12809 whole entry): as above
Chain of Melanin-concentrating hormone receptor 1 (Q99705 whole entry): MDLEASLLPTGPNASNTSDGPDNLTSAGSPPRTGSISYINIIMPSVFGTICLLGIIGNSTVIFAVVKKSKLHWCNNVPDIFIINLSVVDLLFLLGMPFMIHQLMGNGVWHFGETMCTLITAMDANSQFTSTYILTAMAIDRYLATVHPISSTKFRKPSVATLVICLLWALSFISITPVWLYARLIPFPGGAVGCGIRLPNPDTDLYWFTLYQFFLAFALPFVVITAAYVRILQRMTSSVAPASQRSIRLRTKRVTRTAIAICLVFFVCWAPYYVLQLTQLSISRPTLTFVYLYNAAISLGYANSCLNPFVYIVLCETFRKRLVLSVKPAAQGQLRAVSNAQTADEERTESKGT

Ki [1] [nM]	AUC(0-t) at 6 h [2] [ng·h/mL]	Structure (SMILES)	inhibition at 5 ug/ml (hERG) [%]	IC50 [3] [nM]
15.1	339	CC(C)C(=O)Nc1cccc([C@]23CC[C@@H](N(CCCN4CCN(C)CC4)C(=O)Nc4ccc(F)c(Cl)c4)[C@H]2C3)c1	37	–
6.8	634	CN1CCN(CCCN(C(=O)Nc2ccc(F)c(Cl)c2)[C@@H]2CC[C@]3(c4cccc(NC(=O)C5CC5)c4)C[C@H]23)CC1	46	–
28	127	CCNC(=O)Nc1cccc([C@]23CC[C@@H](N(CCCN4CCN(C)CC4)C(=O)Nc4ccc(F)c(Cl)c4)[C@H]2C3)c1	17	–
–	–	CC(=O)Nc1ccc([C@]23CC[C@@H](N(CCCN4CCN(C)CC4)C(=O)Nc4ccc(F)c(Cl)c4)[C@H]2C3)cc1	18	–
–	–	CC(=O)Nc1cccc([C@]23CC[C@@H](N(CCCN4CCN(C)CC4)C(=O)Nc4ccc(F)c(Cl)c4)[C@H]2C3)c1	19	–
–	–	CNC(=O)c1ccc([C@]23CC[C@@H](N(CCCN4CCN(C)CC4)C(=O)Nc4ccc(F)c(C(F)(F)F)c4)[C@H]2C3)cc1	25	–
–	–	CN1CCN(CCCN(C(=O)Nc2ccc(F)c(C(F)(F)F)c2)[C@@H]2CC[C@]3(c4nccs4)C[C@H]23)CC1	27	–
–	–	CN1CCN(CCCN(C(=O)Nc2ccc(F)c(Cl)c2)[C@@H]2CC[C@]3(c4cccnc4)C[C@H]23)CC1	97	–
–	–	CN1CCN(CCCN(C(=O)Nc2ccc(F)c(C(F)(F)F)c2)[C@@H]2CC[C@]3(c4ccc(S(C)(=O)=O)cc4)C[C@H]23)CC1	46	–
4.4	–	CN1CCN(CCCN(C(=O)Nc2ccc(F)c(Cl)c2)[C@@H]2CC[C@]3(c4ccc(N)cc4)C[C@H]23)CC1	16	–
–	–	COC(=O)c1ccc([C@]23CC[C@@H](N(CCCN4CCN(C)CC4)C(=O)Nc4ccc(F)c(C(F)(F)F)c4)[C@H]2C3)cc1 (single isomer, unassigned)	63	–
–	–	CN1CCN(CCCN(C(=O)Nc2ccc(F)c(C(F)(F)F)c2)[C@@H]2CC[C@]3(c4ccc(C#N)cc4)C[C@H]23)CC1	86	52
9.6	–	CN1CCN(CCCN(C(=O)Nc2ccc(F)c(Cl)c2)[C@@H]2CC[C@]3(c4cccc(N)c4)C[C@H]23)CC1	25	–
–	–	COc1ccc([C@]23CC[C@@H](N(CCCN4CCN(C)CC4)C(=O)Nc4ccc(F)c(C(F)(F)F)c4)[C@H]2C3)cn1	36	–
–	–	CN1CCN(CCCN(C(=O)Nc2ccc(F)c(C(F)(F)F)c2)[C@@H]2CC[C@]3(c4ccsc4)C[C@H]23)CC1	75	–
–	–	CN1CCN(CCCN(C(=O)Nc2ccc(F)c(Cl)c2)[C@@H]2CC[C@]3(c4cccc(N5CCC5)c4)C[C@H]23)CC1	29	–
–	–	CCC(=O)Nc1cccc([C@]23CC[C@@H](N(CCCN4CCN(C)CC4)C(=O)Nc4ccc(F)c(Cl)c4)[C@H]2C3)c1	34	–
2.7	–	COc1cccc([C@]23CC[C@@H](N(CCCN4CCN(C)CC4)C(=O)Nc4ccc(F)c(Cl)c4)[C@H]2C3)c1	70	–
–	–	CN1CCN(CCCN(C(=O)Nc2ccc(F)c(C(F)(F)F)c2)[C@@H]2CC[C@]3(c4ccc(=O)[nH]c4)C[C@H]23)CC1	9	–
–	–	CN1CCN(CCCN(C(=O)Nc2ccc(F)c(Cl)c2)[C@@H]2CC[C@]3(c4ccc(F)cc4)C[C@H]23)CC1	87	–
–	–	CN1CCN(CCCN(C(=O)Nc2ccc(F)c(Cl)c2)[C@@H]2CC[C@]3(c4cccc(N5CCCC5=O)c4)C[C@H]23)CC1	14	–
15	–	CN1CCN(CCCN(C(=O)Nc2ccc(F)c(C(F)(F)F)c2)[C@@H]2CC[C@]3(c4ccc5c(c4)CC(=O)N5)C[C@H]23)CC1	50	–
–	–	CN1CCN(CCCN(C(=O)Nc2ccc(F)c(Cl)c2)[C@@H]2CC[C@]3(c4ccc(NC(=O)OC(C)(C)C)cc4)C[C@H]23)CC1	87	–
–	–	CN1CCN(CCCN(C(=O)Nc2ccc(F)c(Cl)c2)[C@@H]2CC[C@]3(c4ccccc4)C[C@H]23)CC1	58	–
–	–	CN1CCN(CCCN(C(=O)Nc2ccc(F)c(C(F)(F)F)c2)[C@@H]2CC[C@]3(c4ccc5c(N)noc5c4)C[C@H]23)CC1	26	690
46	–	CN1CCN(CCCN(C(=O)Nc2ccc(F)c(C(F)(F)F)c2)[C@@H]2CC[C@]3(c4ccc5onc(N)c5c4)C[C@H]23)CC1	46	–
–	–	CN1CCN(CCCN(C(=O)Nc2ccc(F)c(Cl)c2)[C@@H]2CC[C@]3(c4cccc(NC(=O)C(C)(C)C)c4)C[C@H]23)CC1	27	–
